Consider three compounds from patent publication EP0715517B1, “ESTRENE STEROIDS AS NEU[…] CHANGE IN HUMAN HY[…] AND RELATED PHARMACEUTICAL COMPOSITIONS” (priority 1993, dated 1994).

The subject of assay [1] is VNO. As to conditions: 2% lidocaine applied to the respiratory epithelium of the nasal septum; preliminary evidence, Monti-Bloch and Grosser 1991; cited from earlier work.
In assay [2] the test system is VNO. As to the kind of experiment: Electro-vomeronasogram (EVG) (Example 25). In kind it is in vivo, human. As to conditions: 100 fmoles. The method, then: The following electrophysiological studies were performed in 60 clinically normal human volunteers of both sexes (30 male and 30 female) whose ages ranged from 20 to 45 years. No anesthetics were used, and female subjects were excluded if pregnant.
(§1) The stimulation and recording system consists of a "multifunctional miniprobe" described elsewhere (Monti-Bloch, L. and Grosser, B.l. (1991) "Effect of putative pheromones on the electrical activity of the human vomeronasal organ and olfactory epithelium," J. Steroid Biochem. Molec. Biol. 39:573-582.). The recording electrode is a 0.3 mm silver ball attached to a small (0.1 mm) silver wire insulated with Teflon© the surface of the electrode is first treated to produce a silver chloride interface, and is then covered with gelatin It is positioned within a small caliber Teflon© catheter (dia = […]) such that the tip of the electrode protrudes approximately 2 mm. The Teflon© catheter is 10 cm in length and constitutes the terminal extension for a multichannel delivery system which delivers a continuous air stream carrying discreet pulses of chemosensory stimuli. The air stream first passes into a small chamber and is bubbled through a solution containing either a vomeropherin or an olfactant in a diluent or the diluent alone. A solenoid is used to rapidly redirect the air stream from the chamber to a route which bypasses the chamber. This creates a discreet pulse of stimulant in the air stream. A second, outer Teflon® tube with a diameter of 2 mm surrounds the catheter-electrode assemblage, and its central end is connected to an aspirator that provides continuous suction of 3ml/s. This concentric arrangement of the outer suction tube allows the emitted chemosensory stimuli to be localized to an area we call a "minifield" (approx. dia = 1 mm), and it avoids diffusion of substances either to the area outside the intended stimulation site or into the respiratory system. The entire stimulating and recording assemblage may be positioned either on the neurosensory epithelium within the VNO, or on the surface of the olfactory or respiratory epithelium. Electro-vomeronasogram (EVG): Recordings are carried out in a quiet room with the subject supine; the multifunctional miniprobe is initially stabilized within the nasal cavity using a nasal retractor placed in the vestibule. Reference and ground electrodes consist of silver discs (8 mm), both of which are positioned on the glabella.
The entrance to the VNO, or vomeronasal pit, is identified by first dilating the nasal aperture and vestibule. A 6x magnifying binocular loupe with halogen illumination is then used to introduce the tip of the Teflon® catheter and recording electrode assemblage into the VNO opening where it is stabilized at an approximate depth of 1 mm within the vomeronasal passage. Optimal placement of the recording electrode is signaled after testing for an adequate depolarization in response to a test substance.
Electrical signals from the recording electrode are fed to a DC amplifier after which they are digitized, computer monitored, and stored. The peak-to-peak amplitude of the signals is measured, and the area under the depolarization wave is integrated, while continuously monitoring the signal both on the computer screen and on a digital oscilloscope. Artifacts produced by respiratory movements are deleted by training the subjects to practice mouth breathing with velopharyngeal closure. Chemosensory Stimulants: Olfactory test substances are cineole, and 1-carvone; vomeropherins are A, B, C, E and F. (Vomeropherins were supplied by Pherin Corporation, Menlo Park, California), Samples of vomeropherins In concentration of 25-800 fmoles are delivered in the continuous air stream for durations from 300 milliseconds to 1 second. Usually, intervals of 3 to 5 minutes separated each series of short test pulses. […]

Assay [3] deals with VNO. Nature of the assay: Comparison of the change in receptor potential induced by two Estrene steroids (Example 23). It counts as in vivo, human. The following applies: 60 picograms; a subject; Fig. 5. The method, then:
60 picograms of each steroid and of a propylene glycol control were administered to a subject as described in Example 21.

Assay [4] concerns VNO. Nature of the assay: Cortical evoked activity (EEG, alpha cortical activity) after VNO stimulation (Example 25). It counts as in vivo, human. As for the experimental part:
(§2) Cortical evoked activity was induced by VNO stimulation with vomeropherins, and olfactory stimulation with odorants delivered in 300 ms air pulses. It was recorded using standard electroencephalographic (EEG) electrodes placed at positions Cz-A1 and Tz-A1 of the international […] system; the ground electrode was placed on the mastoid process. Electrodermal activity (EDA) was recorded using standard 8 mm silver electrodes in contact with palmar skin of the medial and ring fingers respectively, through a conductive gel interface. Skin temperature (ST) was recorded by a small (1.0 mm) thermistor probe placed in the right ear lobe. Peripheral arterial pulse (PAP) was monitored with a plethysmograph attached to the tip of the index finger. Respiratory frequency (RF) was measured with an adjustable strain gauge placed around the lower thorax. All electrical signals were DC amplified, digitized (MP-100, Biopac Systems) and continuously monitored utilizing a computer. Statistical Analysis: EVGs or EOGS, peak-to-peak changes and frequency changes of other parameters were measured and statistically analyzed. The significance of the results was determined by either using paired t-tests or analysis of variance (ANOVA). […] Recordings of the EVG were performed on 30 men and 30 women (ages 20 to 45). Vomeropherins were diluted and applied as 1 second pulses to the VNO with […] intervals between pulses when questioned, the subjects were not able to "smell" or otherwise consciously detect any of the vomeropherins.
[…] […] Synchronization of the EEG was sustained for 1.5 to 2.7 minutes after application of a single pulse of active substance.

Assay [5] has as its system VNO. As to the kind of experiment: Skin temperature (ST) after VNO stimulation (Example 25). It counts as in vivo, human. The method, then: as §2
Assay [6] relates to olfactory epithelium (OE). Nature of the assay: Electro-olfactgram (EOG) (Example 25). In kind it is in vivo, human. As to conditions: 20 subjects (10 males, 10 females); 200 fmoles vomeropherins, 400 fmoles olfactants; one second pulses; Fig. 7A.
Excerpt: as §1
Electrical signals from the recording electrode are fed to a DC amplifier after which they are digitized, computer monitored, and stored. The peak-to-peak amplitude of the signals is measured, and the area under the depolarization wave is integrated, while continuously monitoring the signal both on the computer screen and on a digital oscilloscope. […]
Effects of Vomeropherins on the EOG: The summated receptor potential from the olfactory epithelium (OE) was recorded in 20 subjects: 10 males and 10 females. […]

The test system of assay [7] is VNO. Nature of the assay: Electrodermal activity (EDA) after VNO stimulation (Example 25). It counts as in vivo, human. As to conditions: female subjects; p<0.01, n = 30. The method, then:
as §2

The structures appear in SMILES notation. Entries after “also recorded” stand apart in the source; their conditions may differ.

`CCN(CC)CC(=O)Nc1c(C)cccc1C` [lidocaine]: the “effect of local anesthetic on the EVG” value in assay [1] is “neither blocks nor diminishes the EVG”.

Regarding `COc1ccc2c(c1)CC[C@@H]1[C@@H]2CC[C@]2(C)C=CC[C@@H]12` [D, 3-Methoxy-Estra-1,3,5(10),16-tetraene], the “EVG average response (mean)” value in assay [2] (male subjects (ages 20 to 38), 1 second pulses, p<0.01, Fig. 6A) is 15.1 mV. In addition, the “change in receptor potential” value in assay [3] is “greater change in receptor potential than did 1,3,5(10),16-Estratetraen-3-yl acetate”. Moreover, in assay [4] (males, 200 fmoles, air pulses 300 ms to 1 sec, Fig. 6E), the alpha cortical activity result is recorded as “significantly increased alpha cortical activity; also recorded: strongest effect”. The “latency of increase in alpha cortical activity” value in assay [4] (males, 200 fmoles, Fig. 6E) is 270 to 380 ms. Further, the “skin temperature (ST)” value in assay [5] (30 male subjects, p<0.01, Fig. 6G) is reported as “significant temperature decrease”.

Turning to `C[C@@]12C=CC[C@H]1[C@@H]1CCC3=CC(=O)CC[C@]3(C)[C@H]1CC2` [B, Androsta-4,16-dien-3-one], the “EVG response in the male VNO (in words)” value in assay [2] (male subjects, Fig. 6A and Fig. 7) was “significantly reduced responses in the male VNO”. Besides, in assay [6], the “EOG local response of the OE (in words)” value is recorded as “the only vomeropherin having significant effect in the OE; also recorded: significant (p<0.01) local response”. Besides, the “decrease in EDA” value in assay [7] is on record as “greater decrease in EDA than A or C”. For the same compound, in assay [4] (females, single pulse (200 fmoles), Fig. 6F), the alpha cortical activity result is recorded as “increased alpha cortical”. Also, the “skin temperature (ST)” value in assay [5] (30 female subjects, p<0.01, compared to A and C, Fig. 6H) is given as “significant increase in skin temperature”.
